Experimental data: patent US10738040B2, “Compounds, compositions, and methods for increasing CFTR activity” (Proteostasis Therapeutics, Inc., priority 2014, dated 2020)
Marks after values point to notes of the source that are not given here.

Key:
ΔF508-CFTR [1] = target: T1, ΔF508-CFTR (Homo sapiens, UniProt P13569, DEL508-508); test: hBE equivalent current (Ieq) assay; format: cell-based; details: compound at 10 uM and VX-809 at 1 uM, relative to VX-809 (1 uM); primary lung epithelial cells homozygous for ΔF508, 24 hours treatment; AUC of equivalent chloride current
T1 construct: Primary lung epithelial cells homozygous for the Cystic Fibrosis-causing ΔF508 mutation were differentiated; endogenous in cells; host or cells: primary human lung (bronchial) epithelial cells homozygous for ΔF508, differentiated at air-liquid interface
Experimental: ii. hBE Equivalent Current (Ieq) Assay
Primary lung epithelial cells homozygous for the Cystic Fibrosis-causing ΔF508 mutation were differentiated for a minimum of 4 weeks in an air-liquid interface on Costar 24 well HTS filter plates prior to the equivalent current (Ieq) measurements. Cells were apically mucus-washed for 30 minutes 24 h prior to treatment with compounds. The basolateral media was removed and replaced with media containing the compound of interest diluted to its final concentration from DMSO stocks. Treated cells were incubated at 37° C. and 5% CO2 for 24 hours. At the end of the treatment period, the media was changed to the Ieq experimental solution for 30 minutes before the experiment and plates are maintained in a CO2-free incubator during this period. The plates containing the cells were then placed in pre-warmed heating blocks at 36° ° C.±0.5 for 15 minutes before measurements are taken. The transepithelial voltage (VT) and conductance (GT) were measured using a custom 24 channel current clamp (TECC-24) with 24 well electrode manifold. The Ieq assay measurements were made following additions with standardized time periods: • 1. The baseline VT and GT values were measured for approximately 20 minutes. • 2. Benzamil was added to block ENaC for 15 minutes. • 3. Forskolin plus VX-770 (ivacaftor) were added to maximally activate ΔF508-CFTR for 27 minutes. • 4. Bumetanide was added to inhibit the NaK2Cl cotransporter and shut-off secretion of chloride.
The activity data captured was the area under the curve (AUC) for the traces of the equivalent chloride current. The AUC was collected from the time of the forskolin/VX-770 addition until the inhibition by bumetanide addition. Correction in response to compound treatment was scored as the increase in the AUC for compound-treated samples over that of vehicle-treated samples.

ΔF508-CFTR [2] = target: T1, ΔF508-CFTR; test: Ussing measurements (short-circuit current, CFTRinh-172-inhibitable); format: cell-based; details: compound at 10 uM and VX-809 at 3 uM, relative to VX-809 (3 uM); hBEs homozygous for ΔF508, 24 hours treatment; CFTRinh-172-inhibitable current
Experimental: As discussed above, Ussing measurements can be used to measure CFTR activity. In this method, primary lung epithelial cells (hBEs) homozygous for the Cystic Fibrosis-causing ΔF508 mutation were differentiated for a minimum of 4 weeks in an air-liquid interface on SnapWell filter plates prior to the Ussing measurements. Cells were apically mucus-washed for 30 minutes prior to treatment with compounds. The basolateral media was removed and replaced with media containing the compound of interest diluted to its final concentration from DMSO stocks. Treated cells were incubated at 37° C. and 5% CO2 for 24 hours. At the end of the treatment period, the cells on filters were transferred to the Ussing chamber and equilibrated for 30 minutes. The short-circuit current was measured in voltage clamp-mode (Vhold=0 mV), and the entire assay was conducted at a temperature of 36° C.-36.5° C. Once the voltages stabilized, the chambers were clamped, and data was recorded by pulse readings every 5 seconds. Following baseline current stabilization, the following additions were applied and the changes in current and resistance of the cells was monitored: • 1. Benzamil to the apical chamber to inhibit ENaC sodium channel. • 2. Forskolin to both chambers to activate ΔF508-CFTR by phosphorylation. • 3. Genistein to both chambers to potentiate ΔF508-CFTR channel opening. • 4. CFTRinh-172 to the apical chamber to inhibit ΔF508-CFTR Cl— conductance. The inhibitable current (that current that is blocked by CFTRinh-172) is measured as the specific activity of the ΔF508-CFTR channel, and increases in response to compound in this activity over that observed in vehicle-treated samples are identified as the correction of ΔF508-CFTR function imparted by the compound tested.

T1 sequence (P13569 with tags, fused parts or gaps DEL508-508): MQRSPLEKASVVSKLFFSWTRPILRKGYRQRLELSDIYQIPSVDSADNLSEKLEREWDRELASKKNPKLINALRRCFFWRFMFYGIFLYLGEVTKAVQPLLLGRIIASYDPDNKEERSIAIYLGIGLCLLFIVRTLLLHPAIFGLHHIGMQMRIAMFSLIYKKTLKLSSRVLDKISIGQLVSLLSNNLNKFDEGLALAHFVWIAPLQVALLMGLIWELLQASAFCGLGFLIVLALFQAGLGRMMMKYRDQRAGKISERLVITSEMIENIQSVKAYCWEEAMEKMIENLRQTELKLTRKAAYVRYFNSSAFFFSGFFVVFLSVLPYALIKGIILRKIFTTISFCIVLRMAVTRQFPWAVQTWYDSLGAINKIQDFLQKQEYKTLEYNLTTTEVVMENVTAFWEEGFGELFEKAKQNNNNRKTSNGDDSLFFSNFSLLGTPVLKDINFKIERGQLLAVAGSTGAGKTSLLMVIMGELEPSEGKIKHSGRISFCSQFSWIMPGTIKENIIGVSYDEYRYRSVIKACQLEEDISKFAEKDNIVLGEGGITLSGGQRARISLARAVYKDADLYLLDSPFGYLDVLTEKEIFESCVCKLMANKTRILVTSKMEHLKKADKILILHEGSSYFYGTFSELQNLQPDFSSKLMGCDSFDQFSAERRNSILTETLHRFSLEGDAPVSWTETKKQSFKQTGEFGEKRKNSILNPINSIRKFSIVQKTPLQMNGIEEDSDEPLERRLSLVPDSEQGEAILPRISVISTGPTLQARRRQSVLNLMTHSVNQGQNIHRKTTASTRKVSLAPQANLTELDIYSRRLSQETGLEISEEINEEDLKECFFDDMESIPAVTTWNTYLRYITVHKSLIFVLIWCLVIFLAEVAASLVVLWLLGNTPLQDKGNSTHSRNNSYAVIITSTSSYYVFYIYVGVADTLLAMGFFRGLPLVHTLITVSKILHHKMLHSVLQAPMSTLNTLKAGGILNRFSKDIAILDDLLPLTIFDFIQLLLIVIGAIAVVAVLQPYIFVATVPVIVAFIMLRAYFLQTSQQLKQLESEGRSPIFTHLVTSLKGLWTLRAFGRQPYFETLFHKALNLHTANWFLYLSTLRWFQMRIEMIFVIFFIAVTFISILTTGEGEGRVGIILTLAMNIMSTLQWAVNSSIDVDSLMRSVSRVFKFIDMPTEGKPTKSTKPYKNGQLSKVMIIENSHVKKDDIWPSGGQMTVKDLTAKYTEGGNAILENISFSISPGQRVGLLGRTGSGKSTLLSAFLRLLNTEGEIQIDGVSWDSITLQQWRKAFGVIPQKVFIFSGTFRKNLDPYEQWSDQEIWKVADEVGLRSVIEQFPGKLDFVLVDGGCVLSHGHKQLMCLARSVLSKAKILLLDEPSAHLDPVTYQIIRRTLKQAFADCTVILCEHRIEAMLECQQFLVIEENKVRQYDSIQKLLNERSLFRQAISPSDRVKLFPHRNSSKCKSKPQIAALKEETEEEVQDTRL

Row | SMILES | Ieq (% VX-809) (ΔF508-CFTR [1]) | Ussing (% VX-809) (ΔF508-CFTR [2])
1 | O=C(N[C@H]1C[C@H](n2cc(CO)nn2)C1)c1cc(-c2ccccc2)on1 | ++ * | ## (activity ≥200% of VX-809 (3 uM) with compound at 10 uM and VX-809 at 3 uM)
2 | O=C(N[C@H]1C[C@@H](c2noc(CO)n2)C1)c1cc(-c2ccccc2)on1 | ** (activity ≥200% of VX-809 (1 uM) with compound at 10 uM and VX-809 at 1 uM) | ## (activity ≥200% of VX-809 (3 uM) with compound at 10 uM and VX-809 at 3 uM)
3 | C[C@@H](O)c1nnc([C@H]2C[C@@H](NC(=O)c3cc(-c4ccccc4)on3)C2)o1 | ** (activity ≥200% of VX-809 (1 uM) with compound at 10 uM and VX-809 at 1 uM) | ## (activity ≥200% of VX-809 (3 uM) with compound at 10 uM and VX-809 at 3 uM)
4 | O=C(N[C@H]1C[C@H](c2nnc(CO)s2)C1)c1cc(-c2ccccc2)on1 | ** (activity ≥200% of VX-809 (1 uM) with compound at 10 uM and VX-809 at 1 uM) | ## (activity ≥200% of VX-809 (3 uM) with compound at 10 uM and VX-809 at 3 uM)
5 | C[C@H](O)c1nnc(C[C@H]2C[C@H](NC(=O)c3cc(-c4ccccc4)on3)C2)s1 | ** (activity ≥200% of VX-809 (1 uM) with compound at 10 uM and VX-809 at 1 uM) | ## (activity ≥200% of VX-809 (3 uM) with compound at 10 uM and VX-809 at 3 uM)
6 | C[C@@H](O)c1nnc([C@H]2C[C@@H](NC(=O)c3cc(-c4ccccc4)on3)C2)s1 | ** (activity ≥200% of VX-809 (1 uM) with compound at 10 uM and VX-809 at 1 uM) | ## (activity ≥200% of VX-809 (3 uM) with compound at 10 uM and VX-809 at 3 uM)
7 | C[C@H](c1nnc([C@H]2C[C@H](NC(=O)c3cc(-c4ccccc4)on3)C2)o1)S(C)(=O)=O | * (activity 100-200% of VX-809 (1 uM) with compound at 10 uM and VX-809 at 1 uM) | ## (activity ≥200% of VX-809 (3 uM) with compound at 10 uM and VX-809 at 3 uM)
8 | O=C(N[C@H]1C[C@H](n2nncc2CO)C1)c1cc(-c2ccccc2)on1 | ++ * | ## (activity ≥200% of VX-809 (3 uM) with compound at 10 uM and VX-809 at 3 uM)
9 | C[C@H](O)c1nnc([C@H]2C[C@@H](NC(=O)c3cc(-c4ccccc4)on3)C2)s1 | ** (activity ≥200% of VX-809 (1 uM) with compound at 10 uM and VX-809 at 1 uM) | ## (activity ≥200% of VX-809 (3 uM) with compound at 10 uM and VX-809 at 3 uM)
10 | O=C(N[C@H]1C[C@@H](n2nncc2CO)C1)c1cc(-c2ccccc2)on1 | ** (activity ≥200% of VX-809 (1 uM) with compound at 10 uM and VX-809 at 1 uM) | ## (activity ≥200% of VX-809 (3 uM) with compound at 10 uM and VX-809 at 3 uM)
11 | O=C(N[C@H]1C[C@H](c2noc(CO)n2)C1)c1cc(-c2ccccc2)on1 | ** (activity ≥200% of VX-809 (1 uM) with compound at 10 uM and VX-809 at 1 uM) | ## (activity ≥200% of VX-809 (3 uM) with compound at 10 uM and VX-809 at 3 uM)
12 | CO[C@H](C)c1nnc([C@H]2C[C@@H](NC(=O)c3cc(-c4ccccc4)on3)C2)o1 | * (activity 100-200% of VX-809 (1 uM) with compound at 10 uM and VX-809 at 1 uM) | ## (activity ≥200% of VX-809 (3 uM) with compound at 10 uM and VX-809 at 3 uM)
13 | C[C@H](O)c1nnc(C2CC(NC(=O)c3cc(-c4ccccc4)on3)C2)o1 (stereo partly shown) | ** (activity ≥200% of VX-809 (1 uM) with compound at 10 uM and VX-809 at 1 uM) | ## (activity ≥200% of VX-809 (3 uM) with compound at 10 uM and VX-809 at 3 uM)
14 | C[C@@H](O)c1nnc(C[C@H]2C[C@H](NC(=O)c3cc(-c4ccccc4)on3)C2)s1 | ** (activity ≥200% of VX-809 (1 uM) with compound at 10 uM and VX-809 at 1 uM) | ## (activity ≥200% of VX-809 (3 uM) with compound at 10 uM and VX-809 at 3 uM)
15 | O=C(N[C@H]1C[C@@H](n2cc(CO)nn2)C1)c1cc(-c2ccccc2)on1 | ** (activity ≥200% of VX-809 (1 uM) with compound at 10 uM and VX-809 at 1 uM) | ## (activity ≥200% of VX-809 (3 uM) with compound at 10 uM and VX-809 at 3 uM)
16 | C[C@H](O)c1nnc([C@H]2C[C@@H](NC(=O)c3cc(-c4ccccc4)on3)C2)o1 | ** (activity ≥200% of VX-809 (1 uM) with compound at 10 uM and VX-809 at 1 uM) | ## (activity ≥200% of VX-809 (3 uM) with compound at 10 uM and VX-809 at 3 uM)
17 | C[C@@H](O)c1cnnn1[C@H]1C[C@H](NC(=O)c2cc(-c3ccccc3)on2)C1 | ** (activity ≥200% of VX-809 (1 uM) with compound at 10 uM and VX-809 at 1 uM) | ## (activity ≥200% of VX-809 (3 uM) with compound at 10 uM and VX-809 at 3 uM)
18 | C[C@@H](O)c1nnc([C@H]2C[C@H](NC(=O)c3cc(-c4ccccc4)on3)C2)s1 | ** (activity ≥200% of VX-809 (1 uM) with compound at 10 uM and VX-809 at 1 uM) | ## (activity ≥200% of VX-809 (3 uM) with compound at 10 uM and VX-809 at 3 uM)
19 | C[C@@H](O)c1nnc(C2CC(NC(=O)c3cc(-c4ccccc4)on3)C2)o1 (stereo partly shown) | ** (activity ≥200% of VX-809 (1 uM) with compound at 10 uM and VX-809 at 1 uM) | ## (activity ≥200% of VX-809 (3 uM) with compound at 10 uM and VX-809 at 3 uM)
20 | C[C@H](O)c1nnc([C@H]2C[C@H](NC(=O)c3cc(-c4ccccc4)on3)C2)s1 | ** (activity ≥200% of VX-809 (1 uM) with compound at 10 uM and VX-809 at 1 uM) | ## (activity ≥200% of VX-809 (3 uM) with compound at 10 uM and VX-809 at 3 uM)
21 | C[C@@H](O)c1nnc(C[C@H]2C[C@H](NC(=O)c3cc(-c4ccccc4)on3)C2)o1 | ** (activity ≥200% of VX-809 (1 uM) with compound at 10 uM and VX-809 at 1 uM) | ## (activity ≥200% of VX-809 (3 uM) with compound at 10 uM and VX-809 at 3 uM)
22 | C[C@H](O)c1cnnn1[C@H]1C[C@H](NC(=O)c2cc(-c3ccccc3)on2)C1 | ** (activity ≥200% of VX-809 (1 uM) with compound at 10 uM and VX-809 at 1 uM) | # (activity 100-200% of VX-809 (3 uM) with compound at 10 uM and VX-809 at 3 uM)
23 | O=C(NC1CC(c2nc(CO)no2)C1)c1cc(-c2ccccc2)on1 (stereo not shown) | ** (activity ≥200% of VX-809 (1 uM) with compound at 10 uM and VX-809 at 1 uM) | ## (activity ≥200% of VX-809 (3 uM) with compound at 10 uM and VX-809 at 3 uM)
